For 1 compound, IC50 and Activity results are on record in ChEMBL document CHEMBL1150616, “Schizopeptin 791, a new anabeanopeptin-like cyclic peptide from the cyanobacterium Schizothrix sp” (J Nat Prod, 2002).

In brackets after ≈: the same amount, converted by molar mass. Activity calls are given as the source filed them. The rule behind the calls is not given here.

Assay [1] in a line: Inhibition of trypsin.
The nature of assay [2]: Inhibition of chymotrypsin at 45 ug/mL.

The compound `CC[C@H](C)[C@H](NC(=O)N[C@@H]1CCCCNC(=O)[C@H](Cc2ccccc2)NC(=O)[C@H](C)N(C)C(=O)[C@H](CCc2ccccc2)NC(=O)[C@H]([C@@H](C)CC)NC1=O)C(=O)O` [Schizopeptin 791] came in with an IC50 in assay [1] of 45 µg/mL (≈ 56.8 µM). The outcome in assay [2] was inactive.
